{
  "source": "EPA's ToxValDB 9.5",
  "key": {"[1]": {"system": "Rattus norvegicus", "conditions": "oral"}, "[2]": {"system": "Rattus norvegicus", "conditions": "for LD50 / LC50: acute"}, "[3]": {"conditions": "reproduction developmental, duration: 24 weeks, inhalation, generation: F0"}, "[4]": {"conditions": "reproduction developmental, duration: 24 weeks, inhalation, generation: F1"}, "[5]": {"conditions": "reproduction developmental, duration: 10 days, oral, gavage, F"}, "[6]": {"conditions": "short-term, duration: 12 days, inhalation, F, Fischer 344"}, "[7]": {"conditions": "short-term, duration: 12 days, inhalation, M, Fischer 344"}, "[8]": {"conditions": "short-term, duration: 14 days, oral, gavage, F, Crj:CD(SD)"}, "[9]": {"conditions": "short-term, duration: 14 days, oral, gavage, M, Crj:CD(SD)"}, "[10]": {"conditions": "subchronic, duration: 13 weeks, inhalation, F, Fischer 344"}, "[11]": {"conditions": "subchronic, duration: 13 weeks, inhalation, M, Fischer 344"}, "[12]": {"conditions": "reproduction developmental, duration: 7 days, oral, gavage, F, CD Strain from Charles River"}},
  "note": "Values joined by “and” are separate entries in the source; they are usually repeats but may differ in a detail not shown here. Identical values can stand only once.",
  "data": [
    {"smiles": "N#[N+]c1ccc2c(S(=O)(=O)[O-])cccc2c1[O-].[Na+]", "values": [
      {"measurement": "NOEL", "setting": "[1]; subchronic, gavage, M, Sprague-Dawley, Clinical Observation: Loose stool Mucous stool Soiled perineal region Brownish urine + Body Weight Changes: decrease(trend) + Food …", "value": "< 40", "unit": "mg/kg-day"}
    ]},
    {"smiles": "Nc1c(S(=O)(=O)O)cc(Br)c2c1C(=O)c1ccccc1C2=O", "values": [
      {"measurement": "NOEL", "setting": "[1]; short-term, duration: 28 days, gavage, M/F, Deaths + Clinical Observation: Polyuria + Body Weight Changes: Body weight gain decrease + Water Consumption: increase + Urinalysis: Urine …", "value": 50, "unit": "mg/kg-day"}
    ]},
    {"smiles": "C=CCOC(=O)c1ccccc1-c1ccccc1C(=O)OCC=C", "values": [
      {"measurement": "NOEL", "setting": "[1]; short-term, duration: 28 days, gavage, M/F, Clinical Observation: Salivation + Hematology: APTT increase, PT increase + Blood Chemistry: GOT increase, GPT increase, gamma-GTP increase…", "value": 6, "unit": "mg/kg-day"}
    ]},
    {"smiles": "C=CS(=O)(=O)CCNC(=O)c1cccc(Nc2nc(F)nc(Nc3cc(S(=O)(=O)[O-])cc4cc(S(=O)(=O)[O-])c(N=Nc5ccc6c(S(=O)(=O)[O-])cccc6c5S(=O)(=O)[O-])c(O)c34)n2)c1.[Na+].[Na+].[Na+].[Na+]", "values": [
      {"measurement": "NOEL", "setting": "[1]; short-term, duration: 28 days, gavage, M/F, Urinalysis: Occult blood increase, Bil increase + Hematology: RET increase, WBC increase, LYMPH increase + Blood Chemistry: BUN increase, T-…", "value": 50, "unit": "mg/kg-day"}
    ]},
    {"smiles": "CC(C)(C)c1cc(-n2nc3ccc(Cl)cc3n2)c(O)c(C(C)(C)C)c1", "values": [
      {"measurement": "NOAEL", "setting": "[1]; subchronic, duration: 42 days, gavage, M, CD(SD), Hematology: RBC decrease, NEUT increase, APTT decrease + Blood Chemistry: ALB increase, A/G increase, ALP increase, T-BIL decreasea2-GLOB …", "value": 2.5, "unit": "mg/kg-day"}
    ]},
    {"smiles": "CC(C)(C)c1cc(CCC(=O)NNC(=O)CCc2cc(C(C)(C)C)c(O)c(C(C)(C)C)c2)cc(C(C)(C)C)c1O", "values": [
      {"measurement": "LD50", "setting": "[2]; oral", "value": "> 7000", "unit": "mg/kg"},
      {"measurement": "NOAEL", "setting": "[2]; short-term, duration: 28 days, oral, diet", "value": "> 10000", "unit": "ppm"},
      {"measurement": "NOAEL", "setting": "[2]; subchronic, duration: 3 months, oral, diet", "value": 38.4, "unit": "mg/kg-day"}
    ]},
    {"smiles": "CC(C)(C)c1cc2nc(-c3ccc(N)cc3)nn2[nH]1", "values": [
      {"measurement": "NOEL", "setting": "[1]; short-term, duration: 28 days, gavage, M/F, Deaths + Clinical Observation: Locomotor activity decrease, Piloerection + Body Weight Changes: Gain decrease + Hematology: RBC decrease, …", "value": 2, "unit": "mg/kg-day"}
    ]},
    {"smiles": "CC(C)(c1ccccc1)c1ccc(Nc2ccc(C(C)(C)c3ccccc3)cc2)cc1", "values": [
      {"measurement": "LC50", "setting": "[2]; oral, gavage", "value": "> 10000", "unit": "mg/kg"}
    ]},
    {"smiles": "Cc1cc(S(=O)(=O)[O-])c(N)cc1Cl.[Na+]", "values": [
      {"measurement": "NOEL", "setting": "[1]; subchronic, gavage, M, Sprague-Dawley, Food Consumption: increase + Urinalysis: pH decrease + Absolute Organ Weight: Kidney increase + Relative Organ Weight: Kidney increase", "value": 300, "unit": "mg/kg-day"}
    ]},
    {"smiles": "COc1cc(S(=O)(=O)CCOS(=O)(=O)O)c(C)cc1N", "values": [
      {"measurement": "NOEL", "setting": "[1]; short-term, duration: 28 days, gavage, M, Absolute Organ Weight: Liver increase + Histopathology: Kidney-Eosinophilic droplet, tubular epithelium", "value": 30, "unit": "mg/kg-day"}
    ]},
    {"smiles": "ClC(Cl)C(Cl)Cl", "note": "[1,1,2,2-Tetrachloroethane]", "values": [
      {"measurement": "NOEL", "setting": "[1]; subchronic, diet, F, Fischer 344, Clinical Observation: Thinness Pallor + Body Weight Changes: decrease + Food Consumption: decrease + Hematology: Manual Hct decrease, Plt …", "value": 10.1, "unit": "mg/kg-day"},
      {"measurement": "NOEL", "setting": "[1]; subchronic, diet, M/F, Fischer 344, Clinical Observation: Thinness Pallor + Body Weight Changes: decrease + Food Consumption: decrease + Hematology: Manual Hct decrease, Plt …", "value": "< 25.7", "unit": "mg/kg-day"},
      {"measurement": "NOEL", "setting": "[1]; subchronic, diet, M, Fischer 344, Clinical Observation: Thinness Pallor + Body Weight Changes: decrease + Food Consumption: decrease + Hematology: Manual Hct decrease, Plt …", "value": 16.6, "unit": "mg/kg-day"}
    ]},
    {"smiles": "CC(C)OC1(OC(C)C)CCCCC1", "note": "[1,1-Diisopropoxycyclohexane]", "values": [
      {"measurement": "NOEL", "setting": "[1]; subchronic, gavage, M, Sprague-Dawley, Clinical Observation: Salivation + Food Consumption: increase + Blood Chemistry: T-Cho increase + Absolute Organ Weight: Liver increase, …", "value": 40, "unit": "mg/kg-day"}
    ]},
    {"smiles": "O=C(O)c1cccc(C(=O)O)c1", "note": "[1,3-Benzenedicarboxylic acid]", "values": [
      {"measurement": "NOAEL", "setting": "[2]; developmental, duration: 10 days, Inhalation, Sprague-Dawley", "value": "> 10", "unit": "mg/m3"}
    ]},
    {"smiles": "C1COCO1", "note": "[1,3-Dioxolane]", "values": [
      {"measurement": "LC50", "setting": "[2]; inhalation, Crl:CD1", "value": 68.4, "unit": "µg/mL"},
      {"measurement": "LD50", "setting": "[2]; oral, gavage, Sprague-Dawley", "value": 5200, "unit": "mg/kg"},
      {"measurement": "LOAEL", "setting": "[2]; developmental, duration: 10 days, oral, gavage", "value": 1000, "unit": "mg/kg-day"},
      {"measurement": "LOAEL", "setting": "[2]; [3]", "value": "> 379", "unit": "mg/m3"},
      {"measurement": "NOAEL", "setting": "[2]; [3]", "value": 379, "unit": "mg/m3"},
      {"measurement": "LOAEL", "setting": "[2]; [4]", "value": "> 379", "unit": "mg/m3"},
      {"measurement": "NOAEL", "setting": "[2]; [4]", "value": 379, "unit": "mg/m3"},
      {"measurement": "LOAEL", "setting": "[2]; [5]", "value": 500, "unit": "mg/kg-day"},
      {"measurement": "NOAEL", "setting": "[2]; [5]", "value": 250, "unit": "mg/kg-day"},
      {"measurement": "LOAEL", "setting": "[2]; [6]", "value": 7030, "unit": "mg/m3"},
      {"measurement": "NOAEL", "setting": "[2]; [6]", "value": 1560, "unit": "mg/m3"},
      {"measurement": "LOAEL", "setting": "[2]; [7]", "value": 7030, "unit": "mg/m3"},
      {"measurement": "NOAEL", "setting": "[2]; [7]", "value": 1560, "unit": "mg/m3"},
      {"measurement": "LOAEL", "setting": "[2]; [8]", "value": 250, "unit": "mg/kg-day"},
      {"measurement": "NOAEL", "setting": "[2]; [8]", "value": 75, "unit": "mg/kg-day"},
      {"measurement": "LOAEL", "setting": "[2]; [9]", "value": 250, "unit": "mg/kg-day"},
      {"measurement": "NOAEL", "setting": "[2]; [9]", "value": 75, "unit": "mg/kg-day"},
      {"measurement": "LOAEL", "setting": "[2]; [10]", "value": 3030, "unit": "mg/m3"},
      {"measurement": "NOAEL", "setting": "[2]; [10]", "value": 903, "unit": "mg/m3"},
      {"measurement": "LOAEL", "setting": "[2]; [11]", "value": 9120, "unit": "mg/m3"},
      {"measurement": "NOAEL", "setting": "[2]; [11]", "value": 3030, "unit": "mg/m3"}
    ]},
    {"smiles": "OCCCO", "note": "[1,3-Propanediol]", "values": [
      {"measurement": "LD50", "setting": "[2]; oral, gavage, Wistar", "value": 15.8, "unit": "mg/kg"}
    ]},
    {"smiles": "NCCCCCCN", "note": "[1,6-Hexanediamine]", "values": [
      {"measurement": "LC50", "setting": "[2]; inhalation, Crl", "value": "> 0.95", "unit": "µg/mL"},
      {"measurement": "LD50", "setting": "[2]; oral, gavage, Crl:CD(SD)", "value": "1130 mg/kg and 792 mg/kg"},
      {"measurement": "LOAEL", "setting": "[2]; developmental, duration: 7 days, oral, gavage, CD Strain from Charles River", "value": 184, "unit": "mg/kg-day"},
      {"measurement": "NOAEL", "setting": "[2]; reproduction developmental, duration: 40 weeks, oral, diet, Charles River COBS CD, Portage Michigan", "value": 150, "unit": "mg/kg-day"},
      {"measurement": "LOAEL", "setting": "[2]; [12]", "value": 184, "unit": "mg/kg-day"},
      {"measurement": "NOAEL", "setting": "[2]; [12]", "value": 112, "unit": "mg/kg-day"},
      {"measurement": "NOAEL", "setting": "[2]; subchronic, duration: 13 weeks, Inhalation, Crl:CD(SD)", "value": 12.8, "unit": "mg/m3"}
    ]},
    {"smiles": "CC(=O)O.CC(C)CCCCCCCOCCCN", "note": "[1-Propanamine, 3-(isodecyloxy)-, acetate]", "values": [
      {"measurement": "LD50", "setting": "[2]; oral, gavage, Sprague-Dawley", "value": "1030 mg/kg and 1460 mg/kg and 1220 mg/kg"}
    ]},
    {"smiles": "CC(C)(CO)CO", "note": "[2,2-Dimethylpropane-1,3-diol]", "values": [
      {"measurement": "LD50", "setting": "[2]; oral", "value": 3200, "unit": "mg/kg"},
      {"measurement": "NOAEL", "setting": "[2]; reproduction developmental, oral, Sprague-Dawley, generation: F0", "value": 1000, "unit": "mg/kg-day"},
      {"measurement": "NOAEL", "setting": "[2]; reproduction developmental, oral, Sprague-Dawley, generation: F1", "value": 1000, "unit": "mg/kg-day"},
      {"measurement": "NOAEL", "setting": "[2]; reproduction developmental, oral, gavage, Sprague-Dawley", "value": 100, "unit": "mg/kg-day"},
      {"measurement": "NOAEL", "setting": "[2]; short-term, duration: 2 weeks, oral, gavage, Wistar", "value": 1000, "unit": "mg/kg-day"}
    ]},
    {"smiles": "Cc1ccc(C)c(O)c1C", "note": "[2,3,6-Trimethylphenol]", "values": [
      {"measurement": "LD50", "setting": "[2]; oral, gavage", "value": "> 2000", "unit": "mg/kg"}
    ]}
  ]
}
